These results are taken from US20230131899A1, “INHIBITORS OF MICROBIALLY INDUCED AMYLOID” (Axial Therapeutics, Inc., priority 2020, published 2023).

Test [1] concerns the target T1, E. coli CsgA (Escherichia coli, UniProt P28307).
T1 construct: made in house; host or cells: E. coli NEB 3016 slyD::kan, pET11d
Kind of test: In vitro ThioflavinT assay of CsgA aggregation (CsgA ThT Assay). Type of test: biochemical. As to the method:
In vitro ThioflavinT assay to determine effects of compounds on CsgA aggregation. To assess the effects of compounds on aggregation of E. coli CsgA, a cell-free assay was performed using purified CsgA and Thioflavin T. In the assay, histidine-tagged CsgA was over-expressed in E. coli NEB 3016 slyD::kan cells harboring a pET11d vector containing a C-terminal 6× His tag. Following growth in rich media, CsgA production is induced at an OD600 of approximately 1.0 by addition of 0.5 mM IPTG (isopropyl beta-D-1-thiogalactopyranoside) followed by incubation at 37° C. for 1-4 hours with shaking at 200-250 rpm. Bacteria were resuspended in 8 M guanidine hydrochloride in 50 mM potassium phosphate buffer, pH 7.3 and lysed by sonication on ice using three 20 second intervals. The resulting lysate was incubated on a platform rocker for 1 hour at room temperature. After centrifugation at 10,000×g for 20 minutes, the supernatant was further sonicated on ice for three 20 second intervals and then incubated with nickel-nitrilotriacetic acid resin (Sigma) at room temperature for 1 hour in a 50 mL conical tube on a platform rocker. The resin was washed and pelleted 5 times with 45 mL 8 M guanidine in 50 mM potassium phosphate buffer pH 7.3. The resin was further washed and pelleted two times with 8 M guanidine hydrochloride in 50 mM potassium phosphate buffer pH 7.3 containing 12.5 mM imidazole. Purified CsgA protein was eluted two times with 5 mL of 6-8 M guanidine hydrochloride in 50 mM potassium phosphate buffer, pH 7.3 containing 250 mM imidazole. The eluted protein was aliquoted with 150 μL per aliquot, snap frozen in liquid nitrogen, and stored at −80 C. In order to obtain monomeric CsgA, the purified CsgA protein was thawed and passed through two pre-chilled desalting columns (Zeba) to remove imidazole and guanidine. The buffer exchanged protein was loaded onto a 30-kDa centrifugal filter unit (Amicon) and spun for 30 minutes at 7500×g to remove dimers and other oligomers. Protein concentration was assessed by the NanoDrop technique (Thermo Scientific), as is familiar to one skilled in the art. The CsgA aggregation assay was conducted in 96-well black non-binding surface or white untreated microplates with 20-40 μM ThioflavinT, 50 mM potassium phosphate buffer pH 7.3, 1% DMSO, CsgA at 2-20 μM, and compounds at 3.125-200 uM. The vehicle control wells contain all components of the assay except test compounds and represent the level of CsgA aggregation in the absence of any inhibitor or accelerator. Plates were incubated at room temperature in a Tecan Nano F200 plate reader with excitation at 438 nm using a 439 nm filter with a bandwidth of 8 nm, and emission at 495 nm with a 490 nm filter with a bandwidth of 10 nm, or in a SpectraMax M5, SpectraMax M2 or SpectraMax® i3X (Molecular Devices, San Jose, Calif.) spectrophotometer with excitation at 438 nm and emission at 495 nm. During the assay, plates were shaken initially for 5 seconds and subsequently for 3 seconds prior to fluorescent readings. Readings were performed every 15 minutes for up to 1005 minutes. The effect of compounds on CsgA aggregation in the assay was determined with data from 0-17 hours. Fluorescence values for each compound with CsgA were first adjusted by subtracting the average fluorescence of the compound in the absence of CsgA or in the presence of CsgA and compound at time 0 or 15 minutes. The data were analyzed in several ways:
1. The adjusted ThT fluorescence values were normalized by dividing them by the average fluorescence in the vehicle control wells containing CsgA. The median normalized fluorescence from 6-6.5 hours or 8-9 hours with the compound was expressed as a percentage of the median fluorescence observed in vehicle controls over the same time period. Percent inhibition of CsgA aggregation by a compound was determined by subtracting the percent average fluorescence with the compound relative to the vehicle controls from 100%. […]

In test [2] the test system is CsgA gene expression (csgBAC promoter-GFP reporter) in E. coli UTI89. The test can be described thus: In vitro live cell fluorescent reporter assay of CsgA transcription (Reporter Assay). The test is classed as cell-based. As to the method:
In vitro live cell fluorescent reporter assay to determine effects of compounds on CsgA transcription. To assess the impact of compounds on CsgA gene expression, a live cell assay was performed using an engineered strain of E. coli UTI89 with a fluorescent CsgA gene expression reporter driven by the csgBAC promoter. In the reporter strain, a gene encoding Green Fluorescent Protein (GFP) was placed immediately downstream of the full intergenic region between csgDEF and csgBAC, containing the csgBAC promoter and other transcriptional regulatory elements, and inserted in single copy into the E. coli UTI89 chromosome, as described in Cegelski et. al., “Small-molecule inhibitors target Escherichia coli amyloid biogenesis and biofilm formation,” Nat. Chem. Bio., 25 Oct. 2009. With this construct, GFP expression in the reporter strain was under the same regulation as CsgA expression. The reporter strain was struck out on a YESCA agar plate (1 g/L yeast extract, 10 g/L casamino acids, 20 g/L Bacto Agar) and grown at about 27° C. for 2 days, or until single colonies were sufficiently large to pick. A single colony of the reporter strain was used to inoculate 5 mL of YESCA broth (1 g/L yeast extract, 10 g/L casamino acids), which was grown overnight at about 27° C. The inoculum was diluted 1:10 in YESCA broth and the optical density at 600 nm (OD600) was measured on a SpectraMax M2 or M5e (Molecular Devices, San Jose, Calif.) spectrophotometer in cuvettes. The culture was then further diluted to achieve a final OD600 of 0.003, which was confirmed by measurement of the OD600. Compounds were diluted in dimethyl sulfoxide (DMSO) and plated on black clear-bottomed tissue culture-treated 96-well plates with 1.5 μL/well for final test concentrations from 0.14-100 μM. All assay wells, including vehicle controls and positive controls for inhibition, included 1% DMSO final. Vehicle control wells consisted of DMSO and the reporter strain to assess the expression of the reporter strain in the assay in the absence of any compound. […] 148.5 μL culture at OD600 0.003 in YESCA broth was added to all wells for 150 μL final volume. Plates were incubated at 27° C. for 20 hours, then GFP fluorescence signal for each well was read on a Spectramax M2 or M5e plate reader with excitation at 485 nm, emission at 525 nm, and a cutoff at 515 nm. OD600 for each well was also measured on the Spectramax M2 or M5e plate reader. […] Background fluorescence was subtracted from all wells, then fluorescence signal for each well was normalized to the mean of the vehicle control wells. Normalized dose response curves were plotted for each compound, and compound inhibition of CsgA transcription was determined by assessing the curve-fit IC50, bottom, top, span (top-bottom), and Hill slope using GraphPad Prism software version 8.1.1 (GraphPad Software, San Diego, Calif.). An additional metric used to evaluate compounds was the concentration at which the curve reached 50% of the expression level of the vehicle control. This was written as a custom analysis in GraphPad Prism according to the formula X[50], or the X value at which Y=50, ie, the compound concentration at which fluorescence of the reporter strain was calculated to reach 50% of the vehicle control fluorescence. Separately from the fluorescence data, OD600 values were normalized to the mean of the vehicle control wells, and dose response curves were plotted for each compound. OD600 reduction of greater than 10% indicated compounds had some toxicity or negative impact on bacterial growth. […]
In general terms: A reporter such as luciferase makes a cellular process visible.

Setting [3] is: Escherichia coli, read-out: Reporter Assay Abs IC50 (μM), median Abs IC50 in the CsgA reporter assay, N/A = maximum expression reduction is <50% of control.
Where [4] appears, read: read-out: CsgA ThT Assay (10 μM CsgA) % Control AUC at 1005 minutes, 25 μM (activity range), CsgA 10 μM, black plates, compound 25 μM, 1005 minutes, class symbol.
Where [5] appears, read: read-out: CsgA ThT Assay (10 μM CsgA) % Control AUC at 1005 minutes, 25 μM, mean AUC as % of DMSO control, CsgA 10 μM, black plates, compound 25 μM, 1005 minutes.
[6] abbreviates: read-out: CsgA ThT Assay (10 μM CsgA) % Control AUC at 1005 minutes, 100 μM (activity range), CsgA 10 μM, black plates, compound 100 μM, 1005 minutes, class symbol.
The mark [7] stands for this setting: read-out: CsgA ThT Assay (10 μM CsgA) % Control AUC at 1005 minutes, 100 μM, mean AUC as % of DMSO control, CsgA 10 μM, black plates, compound 100 μM, 1005 minutes.
[8] abbreviates: Escherichia coli, read-out: Reporter Assay Abs IC50 (activity range), median Abs IC50 in the CsgA reporter assay, class symbol.

Where two headings read alike, the source gives them in different places.

T1 sequence (P28307 23-151): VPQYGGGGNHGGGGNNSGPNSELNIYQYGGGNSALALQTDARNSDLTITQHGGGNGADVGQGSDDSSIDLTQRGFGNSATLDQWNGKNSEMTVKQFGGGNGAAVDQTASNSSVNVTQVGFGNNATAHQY

Consider `O=C(O)C1CN(C2CCCCC2)S(=O)(=O)c2c(-c3cccc(C(F)(F)F)c3)c(Cc3cccc4ccccc34)c(NC3CCCC3)c(=O)n21` (stereo not drawn) [Compound 131, 2-cyclohexyl-7-(cyclopentylamino)-8-(naphthalen-1-ylmethyl)-6-oxo-9-(3-(trifluoromethyl)phenyl)-3,4-dihydro-2H,6H-pyrido[1,2-e][1,2,5]thiadiazine-4-carboxylic acid 1,1-dioxide], for which the remaining activity at 25 µM was 31 to 60% in test [1] (read-out: CsgA ThT Assay (2 μM CsgA) % Control Bmax 25 μM, activity range, class symbol, CsgA 2 μM, white plates, compound 25 μM) and 53% in test [1] (read-out: CsgA ThT Assay (2 μM CsgA) % Control Bmax 25 μM, mean Bmax as percentage of DMSO control, CsgA 2 μM, white plates, compound 25 μM). Besides, the remaining activity at 100 µM in test [1] (read-out: CsgA ThT Assay (2 μM CsgA) % Control Bmax 100 μM, activity range, class symbol, CsgA 2 μM, white plates, compound 100 μM) was greater than 60%; in test [1] (read-out: CsgA ThT Assay (2 μM CsgA) % Control Bmax 100 μM, mean Bmax as percentage of DMSO control, CsgA 2 μM, white plates, compound 100 μM) it was 94%. For the same compound, the IC50 was 0.9 µM in test [2] (setting [3]) and less than 1.3 µM in test [2] (Escherichia coli, read-out: Reporter Assay Abs IC50, activity range, class symbol).

With `Nc1c(Cc2cccc3ccccc23)c(-c2cccc(C(F)(F)F)c2)c2n(c1=O)C(C(=O)O)CN(CCCCO)S2(=O)=O` (stereo not drawn) [Compound 099, 7-amino-2-(4-hydroxybutyl)-8-(naphthalen-1-ylmethyl)-6-oxo-9-(3-(trifluoromethyl)phenyl)-3,4-dihydro-2H,6H-pyrido[1,2-e][1,2,5]thiadiazine-4-carboxylic acid 1,1-dioxide], the remaining activity at 25 µM in test [1] (setting [4]) was 31 to 60%; in test [1] (setting [5]), 56%. Besides, the remaining activity at 100 µM is 31 to 60% in test [1] (setting [6]) and 44% in test [1] (setting [7]). In addition, the IC50 in test [2] (setting [8]) was greater than 10 µM; in test [2] (setting [3]), 17.6 µM.

As for `CN1CC(C(=O)O)n2c(c(-c3cccc(C(F)(F)F)c3)c(Cc3cccc4ccccc34)c(C(O)CO)c2=O)S1(=O)=O` (stereo not drawn) [Compound 101, 7-(1,2-dihydroxyethyl)-2-methyl-8-(naphthalen-1-ylmethyl)-6-oxo-9-(3-(trifluoromethyl)phenyl)-3,4-dihydro-2H,6H-pyrido[1,2-e][1,2,5]thiadiazine-4-carboxylic acid 1,1-dioxide], the remaining activity at 25 µM was greater than 60% in test [1] (setting [4]) and 61% in test [1] (setting [5]). For the same compound, the remaining activity at 100 µM in test [1] (setting [6]) was 11 to 31%; in test [1] (setting [7]) it was 15%. Also, the results for the IC50 in test [2] (setting [8]) and in test [2] (setting [3]) were greater than 10 µM and 29 µM, respectively.

On to `CCCCCN1CC(C(=O)O)n2c(c(-c3cccc(C(F)(F)F)c3)c(Cc3cccc4ccccc34)cc2=O)S1(=O)=O` (single isomer, unassigned) [Compound 025b, 8-(naphthalen-1-ylmethyl)-6-oxo-2-pentyl-9-(3-(trifluoromethyl)phenyl)-3,4-dihydro-2H,6H-pyrido[1,2-e][1,2,5]thiadiazine-4-carboxylic acid 1,1-dioxide], for which the “CsgA ThT Assay (10 μM CsgA) % Control AUC at 1005 minutes, 25 μM (activity range)” value in test [1] (CsgA 10 μM, black plates, compound 25 μM, 1005 minutes, class symbol) was “(++) (% control AUC of 31 to 60%)”. The “CsgA ThT Assay (10 μM CsgA) % Control AUC at 1005 minutes, 100 μM (activity range)” value in test [1] (CsgA 10 μM, black plates, compound 100 μM, 1005 minutes, class symbol) is on record as “(+) (% control AUC of greater than 60%)”. Besides, the “CsgA ThT Assay (10 μM CsgA) % Control AUC at 1005 minutes, 25 μM” value in test [1] (mean AUC as % of DMSO control, CsgA 10 μM, black plates, compound 25 μM, 1005 minutes) stood at 46%. Moreover, the “CsgA ThT Assay (10 μM CsgA) % Control AUC at 1005 minutes, 100 μM” value in test [1] (mean AUC as % of DMSO control, CsgA 10 μM, black plates, compound 100 μM, 1005 minutes) was 107%. For the same compound, the IC50 was 1.3 to 4.5 µM in test [2] (read-out: Reporter Assay Abs IC50 (activity range), median Abs IC50 in the CsgA reporter assay, class symbol) and 2.4 µM in test [2] (read-out: Reporter Assay Abs IC50, median Abs IC50 in the CsgA reporter assay, N/A = maximum expression reduction is <50% of control).

The term IC50 denotes the concentration that inhibits the measured activity by half.
